Assay results as given in paper PMC8422652, “Neuromedin U induces an invasive phenotype in CRC cells expressing the NMUR2 receptor” (Journal of Experimental & Clinical Cancer Research : CR, 2021).
Like-named read-outs stand apart in the source and are kept apart here. Square brackets hold non-standard residues; d marks the D form. Ends that are not written are not given here. Peptide text beside a SMILES is read from it. Dmt = Cc1cc(O)cc(C)c1C[C@H](N)C(=O)O; Tic = O=C(O)[C@@H]1Cc2ccccc2CN1

Assays:
[1] = system: NMUR1 and NMUR2 expression in CRC cells; test: 5-aza-CdR treatment for NMUR1 and NMUR2 expression analysis (real-time PCR); assay type: cell-based, human; settings: 50 µM for 96 h (4 days), n ≥ 4
Experimental: Total RNA was isolated with the ReliaPrep™ RNA Cell Miniprep System (Promega, Madison, WI, USA). The quality control of isolated RNA was performed using the 2100 Bioanalyser (Agilent Technologies, Palo Alto, CA, USA) according to the manufacturer’s instructions. 1 µg of the isolated total RNA (RIN ≥ 8) was reverse transcribed using the High Capacity cDNA Reverse Transcription Kit (Applied Biosystems, CA, USA) according to the manufacturer’s instructions. Real time PCR for human NMU, NMUR1, NMUR2, NTSR1, GHSR1b, GAPDH and β-actin was performed using FastStart Essential DNA Probes Master or FastStart Essential DNA Green Master (Roche, Basel, Switzerland). Amplification was performed on a Roche LightCycler 96. GADPH and/or β-actin mRNA transcripts were used as internal control genes. The amount of target in the various samples was calculated using the 2^−ΔCt relative quantification method with DataAssist v.3.01.
Cells were seeded on 6-well plates (Corning, NY, USA). After cells attachment (6 h), DNA methyltransferase inhibitor, 5-aza-2’-deoxycytidine (5-aza-CdR) (Sigma-Aldrich) was added at final concentration of 50 µM. Medium containing 5-aza-CdR was refreshed every 24 h. After 96 h, total RNA was isolated and analysed. The real-time PCR products were analysed on a 2 % agarose gel with ethidium bromide (Sigma-Aldrich) and visualized.

NMUR2 = NMUR2 agonist, cited from earlier work
From the text: (§1) NMURs agonists, which are NMU-8 analogues, were synthesized with a HPLC purity > 98 %, as described in literature.

[2] = system: HEK293 R2_HA cell line overexpressing NMUR2; test: Ca2+ mobilization assay (fluo-4) in HEK293 R2_HA cells; assay type: cell-based, human
Experimental: (§2) Cells grown on poly-lysine-coated 48-well plates (Corning) for 24 h were stained for 15 min at 37 °C with Hoechst 33342 (Invitrogen). PBS rinsed cells were loaded with Fluo-4 AM (5 µM; Invitrogen) for 45–60 min at 37 °C in the presence of 0.5 % of pluronic-127 in the incubation medium (growth medium without FBS and PS, supplemented with 0.1 % BSA). Cells were rinsed with warm PBS and bathed in a final volume of 300 µl of incubation medium. Images were acquired using AxioVert fluorescence inverted microscope (Zeiss, Germany) with the use of 10 x dry objective (NA 0.3). First, an image of Hoechst 33342-stained nuclei was acquired. Next, a time-lapse image sequence in green channel (Fluo-4) was recorded with exposure time of 500 ms in the same field of view. […] For analysis of CRC cells we chose minimal concertation that induce significant fluorescence change. NMU-9 (1 µM) and NMUR2 agonist (200 nM ~ 5 times the EC50 determined in literature). […] Quantification of the effects is described in Additional Files 1 and 3. […]
(§3) Quantification of the calcium mobilisation were performed with the use of FIJI image processing package***. […] Fluorescence intensity change over time was measured in each ROI in corresponding movie sequence of Fluo-4 stained cells. […] Such background-corrected values of fluorescence intensity were used for further calculations. […]

[3] = Half-life in human plasma (plasma stability); assay type: in vitro ADME
From the text: NMURs agonists, which are NMU-8 analogues, were synthesized with a HPLC purity > 98 %, as described in literature. […] All peptides were used as solutions in water. Peptide sequences and stability data are available in the Table S1 (Additional File 1).

ERK1/2 in Caco-2 cells = test: ERK1/2 activation analysis (immunoblot) in Caco-2 cells; assay type: cell-based, human; settings: SBL-NMU-17 250 nM, immunoblot pERK1/2 normalised to ERK1/2 and α-tubulin, n = 5 (NMU-9 n = 1)
Experimental: (§4) CRC cells were lysed with RIPA buffer (100 mM TRIS-HCl, pH 7.5, 300 mM NaCl, 0.2 % SDS with 1 % IGEPAL CA-630 and the Halt™ Protease Inhibitor Cocktail (Thermo Fisher Scientific)) with subsequent centrifugation (18,000 x g, 4 °C, 20 min). Total protein concentration in lysate was quantified by BCA method (Pierce BCA Protein Assay; Thermo Fisher Scientific). Samples were loaded and separated by SDS-PAGE (Mini-PROTEAN TGX Stain-Free Gels; Bio-Rad Laboratories, CA, USA) and transferred onto nitrocellulose membranes (Bio-Rad Laboratories). NMU protein was detected with rabbit anti-NMU antibody (Genetex, CA, USA), for ERK1/2 kinases analysis mouse anti-ERK1/2 (Santa Cruz Biotechnology, USA) and rabbit anti-pERK1/2 antibodies (Invitrogen) were used. In EVs (extracellular vesicles) purity analysis we used rabbit antibodies anti-GM130, anti-annexin V and anti-flotilin-1 (Cell Signaling Technologies, Danvers, MA, USA). Proteins used as loading controls were detected by mouse anti-β-actin, mouse anti-α-tubulin or rabbit anti-GAPDH antibody (Abcam, Cambridge, GB). We used secondary HRP-conjugated goat anti-mouse (Santa Cruz Biotechnology) or anti-rabbit antibodies (Invitrogen). The signal was detected by chemiluminescence (Thermo Fisher Scientific) with Kodak BioMax Light Film from Eastman Kodak (NY, USA). […]

[4] = system: ERK1/2 in HEK293 R2_HA cells; test: ERK1/2 activation analysis (immunoblot) in HEK293 R2_HA cells; assay type: cell-based, human; settings: HEK293 R2_HA clone, n = 1
Experimental: as §4, with “In EVs (extracellular vesicles) purity analysis we used rabbit antibodies anti-GM130, anti-annexin V and anti-flotilin-1 (Cell Signaling Technologies, Danvers, MA, USA).” left out, “We used secondary HRP-conjugated goat anti-mouse (Santa Cruz Biotechnology) or anti-rabbit antibodies (Invitrogen).” left out
Fig. S1 HEK293 R2_HA clones with exogenous NMUR2 overexpression. (A) NMUR2 mRNA levels were analysed in HT29 with endogenous expression of NMUR2 and compared to those in HEK293 R2_HA clones with exogenous expression of NMUR2 (**p ≤ 0,01; n ≥ 3). […] The changes in fluorescence were detected and analysed as described in the Methods section. […]

HT29 cells = test: Ca2+ mobilization assay (fluo-4) in HT29 cells; assay type: cell-based, human
Experimental: as §2, §3

HCT116 cells = test: Ca2+ mobilization assay (fluo-4) in HCT116 cells; assay type: cell-based, human; settings: 1 µM NMU-9, 40 nM NMUR1 agonist, percentage of cells above threshold, n = 5
Experimental: as §2, with “change.” for “change. NMU-9 (1 µM) and NMUR2 agonist (200 nM ~ 5 times the EC50 determined in literature).”
Quantification of the calcium mobilisation were performed with the use of FIJI image processing package***. […] Fluorescence intensity change over time was measured in each ROI in corresponding movie sequence of Fluo-4 stained cells. To acquire the change of background fluorescence over time in each movie sequence, additional ROIs were created by the analyst manually in the sites devoid of cells. […]

NMUR1 = NMUR1 agonist, cited from earlier work
From the text: as §1

[5] = cited from earlier work
From the text: Supplement 13046_2021_2073_MOESM1_ESM.docx, table 1: Table S1. […] NMURs agonists, which are NMU-8 analogues, were synthesized with a HPLC purity > 98 %, as described in literature.

[6] = species not given; cited from earlier work
From the text: Physiologically, NMU has been predominantly found in the central nervous system and in the periphery. In the gastrointestinal tract, locally administered NMU leads to smooth muscle contraction, regulating intestinal motility and regional blood flow, but epithelial cells are not the source of the peptide in the gastrointestinal tract under normal conditions. Human neuromedin U synthesis is tightly regulated at the genetic, epigenetic, transcriptional and post-transcriptional levels, regulating access to cellular microenvironments. Peptide precursors can be produced from three ...

## Nc1ncn([C@H]2C[C@H](O)[C@@H](CO)O2)c(=O)n1 [5-aza-CdR, 5-aza-2’-deoxycytidine]
[1]
  NMUR1 and NMUR2 expression after DNA demethylation: regulated by promoter methylation

## CC(C)C[C@H](NC(=O)[C@H](Cc1ccccc1)NC(=O)[C@@H](N)Cc1ccc(O)cc1)C(=O)N[C@@H](Cc1ccccc1)C(=O)N[C@@H](CCCNC(=N)N)C(=O)N1Cc2ccccc2C[C@H]1C(=O)N[C@@H](CCCNC(=N)N)C(=O)N[C@@H](CC(N)=O)C(N)=O [SBL-NMU-17] (H-YFLFR[Tic]RN-NH2)
NMUR2; IP3 pathway activation data
  EC50: 45.5 nM
NMUR2; competitive binding assay
  IC50: 13 nM
[2]; HEK293 R2_HA cells loaded with fluo-4
  Minimal effective concentration (Ca2+ influx): 150 nM
[2]; HEK293 R2_HA, NMU-9 0.7 µM, SBL-NMU-17 150 nM, n = 3
  Calcium mobilisation (fluo-4): significant calcium mobilisation
[3]; human plasma, both peptides yielded a 7-amino acid long metabolite
  Metabolite observed in plasma stability studies: only Tyr was lost
ERK1/2 in Caco-2 cells
  Phosphorylation (activation) of ERK1/2 kinases: induced ERK1/2 kinase activation
[4]
  ERK1/2 phosphorylation: observed ERK1/2 phosphorylation
HT29 cells; CRC cells, tested 150, 200, 300 nM
  Minimal concentration that induces significant fluorescence change (Ca2+ mobilisation): 200 nM
HT29 cells; HT29 cells, 1 µM NMU-9, 200 nM NMUR2 agonist, percentage of cells above threshold, n = 5
  Change in fluo-4 fluorescence intensity caused by Ca2+ mobilisation: significantly responded

## CC(=O)N[C@@H](Cc1ccc(O)cc1)C(=O)N[C@@H](Cc1ccccc1)C(=O)N[C@@H](CC(C)C)C(=O)N[C@@H](Cc1c(C)cc(O)cc1C)C(=O)N[C@@H](CCCNC(=N)N)C(=O)N1CCC[C@H]1C(=O)N[C@@H](CCCNC(=N)N)C(=O)N[C@@H](CC(N)=O)C(N)=O [SBL-NMU-21] (Ac-YFL[Dmt]RPRN-NH2)
HCT116 cells
  Change in fluo-4 fluorescence intensity caused by Ca2+ mobilisation: did not detect statistically significant changes
NMUR1; calculated based on the IP3 pathway activation data
  EC50: 7.7 nM
NMUR1; calculated based on the competitive binding assay
  IC50: 0.36 nM
[5]
  Half-life in human plasma (t1/2): 4.225 h

## GYFLFRPRN-NH2 [NMU-9]
[3]
  Metabolite observed in plasma stability studies: the peptide devoid of the Gly-Tyr segment was quickly observed
[3]; human
  Half-life in human plasma (t1/2): 4.60 ± 0.4 min

## NMU: Native neuromedin U peptide, secretory neuropeptide with amidated C-terminal pentapeptide (FRVDEEFQSPFASQSRGYFLFRPRN-NH2; UniProt P48645 142-166, looked up)
[6]
  estimated half-life in plasma: less than 5 min
